Organism: Rattus norvegicus
Experiment: Open TG-GATES - Regimen: Single
Format: toxicity, organism-based, Sprague-Dawley
Set-up: regimen Single, gender Male, age 6 weeks
Conditions: in vivo, po, route gavage; for APTT / Bas / Eos / Fbg / Hb / Ht / Lym / MCH / MCHC / MCV / Mono / Neu / PT / Plat / RBC / Ret / WBC: tissue Blood; for KIDNEY_L / KIDNEY_R / KIDNEY_TOTAL: tissue Kidney; for LIVER: tissue Liver; for A/G / ALP / ALT / AST / BUN / CRE / Ca / Cl / DBIL / GLC / IP / K / LDH / Na / PL / RALB / TBIL / TC / TG / TP / gamma-GTP: tissue Plasma
[1] = 300 mg/kg, 3 h, dose level Middle
[2] = 300 mg/kg, 6 h, dose level Middle
[3] = 300 mg/kg, 9 h, dose level Middle
[4] = 300 mg/kg, 24 h, dose level Middle
[5] = 1000 mg/kg, 3 h, dose level High
[6] = 1000 mg/kg, 6 h, dose level High
[7] = 1000 mg/kg, 9 h, dose level High
[8] = 1000 mg/kg, 24 h, dose level High

CC[C@@H](CO)NCCN[C@@H](CC)CO [ETHAMBUTOL]
TERMINAL_BW [1]: 232.2 g
APTT [1]: 22.9 s
Bas [1]: 0%
Eos [1]: 0.6%
Fbg [1]: 301.8 mg/dL
Hb [1]: 13.7 g/dL
Ht [1]: 40.8%
Lym [1]: 78%
MCH [1]: 22 pg
MCHC [1]: 33.6%
MCV [1]: 65.5 fL
Mono [1]: 2.8%
Neu [1]: 18.2%
PT [1]: 15.5 s
Plat [1]: 120.7 x10_4/uL
RBC [1]: 623.8 x10_4/ul
Ret [1]: 8.5%
WBC [1]: 63.4 x10_2/uL
KIDNEY_L [1]: 1 g
KIDNEY_R [1]: 1 g
KIDNEY_TOTAL [1]: 2 g
LIVER [1]: 10.9 g
A/G [1]: 1.3
ALP [1]: 1703.4 IU/L
ALT [1]: 42.6 IU/L
AST [1]: 68.2 IU/L
BUN [1]: 12.2 mg/dL
CRE [1]: 0.1 mg/dL
Ca [1]: 10.3 mg/dL
Cl [1]: 106.8 meq/L
DBIL [1]: 0.002 mg/dL
GLC [1]: 190 mg/dL
IP [1]: 8.9 mg/dL
K [1]: 3.8 meq/L
LDH [1]: 187.2 IU/L
Na [1]: 141 meq/L
PL [1]: 137.4 mg/dL
RALB [1]: 3 g/dL
TBIL [1]: 0.02 mg/dL
TC [1]: 78.2 mg/dL
TG [1]: 54.2 mg/dL
TP [1]: 5.4 g/dL
gamma-GTP [1]: 1.6 IU/L
TERMINAL_BW [2]: 224.6 g
APTT [2]: 22.5 s
Bas [2]: 0%
Eos [2]: 1.2%
Fbg [2]: 321.2 mg/dL
Hb [2]: 14 g/dL
Ht [2]: 41%
Lym [2]: 75%
MCH [2]: 21.5 pg
MCHC [2]: 34.1%
MCV [2]: 63.1 fL
Mono [2]: 2.2%
Neu [2]: 20.6%
PT [2]: 15.6 s
Plat [2]: 124.9 x10_4/uL
RBC [2]: 649.8 x10_4/ul
Ret [2]: 7.7%
WBC [2]: 89.1 x10_2/uL
KIDNEY_L [2]: 1 g
KIDNEY_R [2]: 1 g
KIDNEY_TOTAL [2]: 2 g
LIVER [2]: 9.9 g
A/G [2]: 1.1
ALP [2]: 1416.2 IU/L
ALT [2]: 39.4 IU/L
AST [2]: 68.6 IU/L
BUN [2]: 10 mg/dL
CRE [2]: 0.1 mg/dL
Ca [2]: 10.2 mg/dL
Cl [2]: 106 meq/L
DBIL [2]: 0.002 mg/dL
GLC [2]: 183.6 mg/dL
IP [2]: 9.1 mg/dL
K [2]: 4.1 meq/L
LDH [2]: 169 IU/L
Na [2]: 141 meq/L
PL [2]: 139.8 mg/dL
RALB [2]: 2.9 g/dL
TBIL [2]: 0.022 mg/dL
TC [2]: 74.6 mg/dL
TG [2]: 76.6 mg/dL
TP [2]: 5.5 g/dL
gamma-GTP [2]: 1.8 IU/L
TERMINAL_BW [3]: 217.6 g
APTT [3]: 23 s
Bas [3]: 0%
Eos [3]: 0.6%
Fbg [3]: 334 mg/dL
Hb [3]: 13.6 g/dL
Ht [3]: 40.2%
Lym [3]: 74.4%
MCH [3]: 21.4 pg
MCHC [3]: 33.7%
MCV [3]: 63.5 fL
Mono [3]: 1.8%
Neu [3]: 22.2%
PT [3]: 16.1 s
Plat [3]: 122 x10_4/uL
RBC [3]: 633.4 x10_4/ul
Ret [3]: 7.8%
WBC [3]: 74.5 x10_2/uL
KIDNEY_L [3]: 1 g
KIDNEY_R [3]: 1 g
KIDNEY_TOTAL [3]: 2.1 g
LIVER [3]: 9.7 g
A/G [3]: 1.2
ALP [3]: 1255.8 IU/L
ALT [3]: 37 IU/L
AST [3]: 68.2 IU/L
BUN [3]: 9.6 mg/dL
CRE [3]: 0.1 mg/dL
Ca [3]: 10.4 mg/dL
Cl [3]: 107 meq/L
DBIL [3]: 0 mg/dL
GLC [3]: 176.8 mg/dL
IP [3]: 9.4 mg/dL
K [3]: 3.9 meq/L
LDH [3]: 139.4 IU/L
Na [3]: 141.6 meq/L
PL [3]: 136.8 mg/dL
RALB [3]: 3 g/dL
TBIL [3]: 0.036 mg/dL
TC [3]: 78.6 mg/dL
TG [3]: 53.4 mg/dL
TP [3]: 5.6 g/dL
gamma-GTP [3]: 1.8 IU/L
TERMINAL_BW [4]: 235.9 g
APTT [4]: 22 s
Bas [4]: 0%
Eos [4]: 1%
Fbg [4]: 339.2 mg/dL
Hb [4]: 13.7 g/dL
Ht [4]: 39.7%
Lym [4]: 81.6%
MCH [4]: 22 pg
MCHC [4]: 34.6%
MCV [4]: 63.5 fL
Mono [4]: 3%
Neu [4]: 13.2%
PT [4]: 15.9 s
Plat [4]: 117.6 x10_4/uL
RBC [4]: 625.8 x10_4/ul
Ret [4]: 7.3%
WBC [4]: 107.5 x10_2/uL
KIDNEY_L [4]: 1.1 g
KIDNEY_R [4]: 1.1 g
KIDNEY_TOTAL [4]: 2.2 g
LIVER [4]: 12.3 g
A/G [4]: 1.2
ALP [4]: 1520.4 IU/L
ALT [4]: 46 IU/L
AST [4]: 69.4 IU/L
BUN [4]: 14.6 mg/dL
CRE [4]: 0.1 mg/dL
Ca [4]: 10.5 mg/dL
Cl [4]: 105.2 meq/L
DBIL [4]: 0 mg/dL
GLC [4]: 187.4 mg/dL
IP [4]: 8.5 mg/dL
K [4]: 3.9 meq/L
LDH [4]: 145.8 IU/L
Na [4]: 141 meq/L
PL [4]: 155.6 mg/dL
RALB [4]: 3.1 g/dL
TBIL [4]: 0.014 mg/dL
TC [4]: 82.4 mg/dL
TG [4]: 89.4 mg/dL
TP [4]: 5.7 g/dL
gamma-GTP [4]: 2 IU/L
TERMINAL_BW [5]: 224.6 g
APTT [5]: 23.9 s
Bas [5]: 0%
Eos [5]: 0.8%
Fbg [5]: 301.6 mg/dL
Hb [5]: 13.7 g/dL
Ht [5]: 40.3%
Lym [5]: 81.2%
MCH [5]: 21.3 pg
MCHC [5]: 33.9%
MCV [5]: 62.7 fL
Mono [5]: 2.2%
Neu [5]: 15.4%
PT [5]: 15.7 s
Plat [5]: 126.2 x10_4/uL
RBC [5]: 643.4 x10_4/ul
Ret [5]: 7.5%
WBC [5]: 67.7 x10_2/uL
KIDNEY_L [5]: 1 g
KIDNEY_R [5]: 1 g
KIDNEY_TOTAL [5]: 2.1 g
LIVER [5]: 9.9 g
A/G [5]: 1.2
ALP [5]: 1529.4 IU/L
ALT [5]: 41.8 IU/L
AST [5]: 74.8 IU/L
BUN [5]: 10.4 mg/dL
CRE [5]: 0.1 mg/dL
Ca [5]: 10.1 mg/dL
Cl [5]: 106.8 meq/L
DBIL [5]: 0 mg/dL
GLC [5]: 173.8 mg/dL
IP [5]: 8.7 mg/dL
K [5]: 3.9 meq/L
LDH [5]: 175.6 IU/L
Na [5]: 141.6 meq/L
PL [5]: 139 mg/dL
RALB [5]: 3 g/dL
TBIL [5]: 0.018 mg/dL
TC [5]: 83.8 mg/dL
TG [5]: 35.6 mg/dL
TP [5]: 5.4 g/dL
gamma-GTP [5]: 1.8 IU/L
TERMINAL_BW [6]: 222.4 g
APTT [6]: 22.3 s
Bas [6]: 0%
Eos [6]: 1%
Fbg [6]: 308.6 mg/dL
Hb [6]: 13.7 g/dL
Ht [6]: 40.2%
Lym [6]: 77.4%
MCH [6]: 21.1 pg
MCHC [6]: 34.1%
MCV [6]: 61.9 fL
Mono [6]: 2.8%
Neu [6]: 18%
PT [6]: 15.9 s
Plat [6]: 123.5 x10_4/uL
RBC [6]: 650.6 x10_4/ul
Ret [6]: 7.1%
WBC [6]: 70.3 x10_2/uL
KIDNEY_L [6]: 1 g
KIDNEY_R [6]: 1 g
KIDNEY_TOTAL [6]: 2 g
LIVER [6]: 9.5 g
A/G [6]: 1.2
ALP [6]: 1436.4 IU/L
ALT [6]: 35.6 IU/L
AST [6]: 67.4 IU/L
BUN [6]: 9.8 mg/dL
CRE [6]: 0.1 mg/dL
Ca [6]: 10 mg/dL
Cl [6]: 108 meq/L
DBIL [6]: 0.002 mg/dL
GLC [6]: 186.4 mg/dL
IP [6]: 9.4 mg/dL
K [6]: 4.1 meq/L
LDH [6]: 176.4 IU/L
Na [6]: 141.4 meq/L
PL [6]: 134 mg/dL
RALB [6]: 3 g/dL
TBIL [6]: 0.03 mg/dL
TC [6]: 75.4 mg/dL
TG [6]: 43.2 mg/dL
TP [6]: 5.5 g/dL
gamma-GTP [6]: 1.4 IU/L
TERMINAL_BW [7]: 217 g
APTT [7]: 22.3 s
Bas [7]: 0%
Eos [7]: 0.2%
Fbg [7]: 312 mg/dL
Hb [7]: 13.9 g/dL
Ht [7]: 40.3%
Lym [7]: 79.2%
MCH [7]: 22 pg
MCHC [7]: 34.4%
MCV [7]: 64.1 fL
Mono [7]: 1.4%
Neu [7]: 17.8%
PT [7]: 16.3 s
Plat [7]: 116.9 x10_4/uL
RBC [7]: 630 x10_4/ul
Ret [7]: 7.6%
WBC [7]: 68.6 x10_2/uL
KIDNEY_L [7]: 1 g
KIDNEY_R [7]: 1 g
KIDNEY_TOTAL [7]: 1.9 g
LIVER [7]: 8.7 g
A/G [7]: 1.1
ALP [7]: 1464.4 IU/L
ALT [7]: 35.8 IU/L
AST [7]: 68.2 IU/L
BUN [7]: 11.4 mg/dL
CRE [7]: 0.1 mg/dL
Ca [7]: 9.9 mg/dL
Cl [7]: 108.2 meq/L
DBIL [7]: 0.002 mg/dL
GLC [7]: 177.8 mg/dL
IP [7]: 8.8 mg/dL
K [7]: 3.9 meq/L
LDH [7]: 143 IU/L
Na [7]: 140 meq/L
PL [7]: 121 mg/dL
RALB [7]: 3 g/dL
TBIL [7]: 0.022 mg/dL
TC [7]: 63.8 mg/dL
TG [7]: 44.6 mg/dL
TP [7]: 5.6 g/dL
gamma-GTP [7]: 1.6 IU/L
TERMINAL_BW [8]: 227.8 g
APTT [8]: 22.5 s
Bas [8]: 0%
Eos [8]: 1%
Fbg [8]: 306.4 mg/dL
Hb [8]: 13.4 g/dL
Ht [8]: 39.2%
Lym [8]: 76%
MCH [8]: 21.5 pg
MCHC [8]: 34.3%
MCV [8]: 62.9 fL
Mono [8]: 3%
Neu [8]: 18.6%
PT [8]: 16.7 s
Plat [8]: 118 x10_4/uL
RBC [8]: 623.4 x10_4/ul
Ret [8]: 6.9%
WBC [8]: 94.9 x10_2/uL
KIDNEY_L [8]: 1 g
KIDNEY_R [8]: 1.1 g
KIDNEY_TOTAL [8]: 2.1 g
LIVER [8]: 10.5 g
A/G [8]: 1.2
ALP [8]: 1508.4 IU/L
ALT [8]: 46.8 IU/L
AST [8]: 74 IU/L
BUN [8]: 13.4 mg/dL
CRE [8]: 0.1 mg/dL
Ca [8]: 10.5 mg/dL
Cl [8]: 105 meq/L
DBIL [8]: 0.002 mg/dL
GLC [8]: 183.8 mg/dL
IP [8]: 8.3 mg/dL
K [8]: 3.9 meq/L
LDH [8]: 158 IU/L
Na [8]: 139.4 meq/L
PL [8]: 135.4 mg/dL
RALB [8]: 3 g/dL
TBIL [8]: 0.022 mg/dL
TC [8]: 74.6 mg/dL
TG [8]: 53.2 mg/dL
TP [8]: 5.5 g/dL
gamma-GTP [8]: 2 IU/L

Source: ChEMBL document CHEMBL3885861, “Open TG-GATES”
